In US8426409B2, “Inhibitors of Bruton's tyrosine kinase” (Roche Palo Alto LLC, priority 2008, dated 2013):

Biological target: T1, Btk enzyme (His-tagged, full-length) (Homo sapiens, UniProt Q06187)
T1 construct: 5-10 nM Btk enzyme (His-tagged, full-length); His
Assay: Bruton's Tyrosine Kinase (Btk) Inhibition Assay (33P filtration capture)
Format: biochemical
Details: 100 μM ATP, 30 μM biotinylated peptide substrate, 30 min at 30° C.
Description: The assay is a capture of radioactive ^33P phosphorylated product through filtration. The interactions of Btk, biotinylated SH2 peptide substrate (Src homology), and ATP lead to phosphorylation of the peptide substrate. Biotinylated product is bound streptavidin sepharose beads. All bound, radiolabeled products are detected by scintillation counter.
Plates assayed are 96-well polypropylene (Greiner) and 96-well 1.2 μm hydrophilic PVDF filter plates (Millipore). Concentrations reported here are final assay concentrations: 10-100 μM compounds in DMSO (Burdick and Jackson), 5-10 nM Btk enzyme (His-tagged, full-length), 30 μM peptide substrate (Biotin-Aca-AAAEEIYGEI-NH2), 100 μM ATP (Sigma), 8 mM imidazole (Sigma, pH 7.2), 8 mM glycerol-2-phosphate (Sigma), 200 μM EGTA (Roche Diagnostics), 1 mM MnCl2 (Sigma), 20 mM MgCl2 (Sigma), 0.1 mg/ml BSA (Sigma), 2 mM DTT (Sigma), 1 μCi ^33P ATP (Amersham), 20% streptavidin sepharose beads (Amersham), 50 mM EDTA (Gibco), 2 M NaCl (Gibco), 2 M NaCl w/1% phosphoric acid (Gibco), microscint-20 (Perkin Elmer).
IC50 determinations are calculated from 10 data points per compound utilizing data produced from a standard 96-well plate assay template. […] Background was counted in the absence of peptide substrate. Total activity was determined in the presence of peptide substrate. […]

T1 sequence (Q06187 whole entry): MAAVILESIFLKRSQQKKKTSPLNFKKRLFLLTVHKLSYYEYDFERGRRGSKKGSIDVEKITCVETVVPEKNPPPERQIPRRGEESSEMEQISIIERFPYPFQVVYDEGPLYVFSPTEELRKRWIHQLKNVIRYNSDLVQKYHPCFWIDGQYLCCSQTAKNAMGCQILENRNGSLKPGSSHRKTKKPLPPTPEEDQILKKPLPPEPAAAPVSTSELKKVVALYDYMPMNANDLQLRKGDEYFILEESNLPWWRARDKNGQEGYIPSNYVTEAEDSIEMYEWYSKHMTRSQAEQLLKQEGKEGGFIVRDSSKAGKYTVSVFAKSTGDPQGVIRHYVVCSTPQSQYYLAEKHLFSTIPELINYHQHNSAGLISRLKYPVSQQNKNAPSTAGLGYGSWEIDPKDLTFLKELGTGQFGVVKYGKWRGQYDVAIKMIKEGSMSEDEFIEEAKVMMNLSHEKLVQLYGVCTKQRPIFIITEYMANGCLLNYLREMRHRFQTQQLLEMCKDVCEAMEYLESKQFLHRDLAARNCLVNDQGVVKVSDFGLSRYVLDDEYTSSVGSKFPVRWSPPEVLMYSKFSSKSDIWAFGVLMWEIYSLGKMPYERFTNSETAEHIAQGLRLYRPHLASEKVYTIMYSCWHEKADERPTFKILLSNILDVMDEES

| IC50 [nM] | SMILES |
| --- | --- |
| 25 | O=C(c1ccc(Nc2nc(-c3cccc(N4CCc5cc(C6CC6)ccc5C4=O)c3CO)cn3ccnc23)cc1)N1CCOCC1 [II-1, 6-Cyclopropyl-2-(2-hydroxymethyl-3-{8-[4-(morpholine-4-carbonyl)-phenylamino]-imidazo[1,2-a]pyrazin-6-yl}-phenyl)-3,4-dihydro-2H-isoquinolin-1-one] |
| 37 | O=C1c2ccc(C3CC3)cc2CCN1c1cccc(-c2cn3ccnc3c(Nc3ccc(CN4CCOCC4)cc3)n2)c1CO [II-2, 6-Cyclopropyl-2-{2-hydroxymethyl-3-[8-(4-morpholin-4-ylmethyl-phenylamino)-imidazo[1,2-a]pyrazin-6-yl]-phenyl}-3,4-dihydro-2H-isoquinolin-1-one] |
